Drawing on patent publication US11802111B2, “Cyclobutyl amide monoacylglycerol lipase modulators” (Janssen Pharmaceutica NV, priority 2020, dated 2023), this text covers IC50 for 31 compounds.

Sequence of human MGL from HeLa cells (Q99685 whole entry): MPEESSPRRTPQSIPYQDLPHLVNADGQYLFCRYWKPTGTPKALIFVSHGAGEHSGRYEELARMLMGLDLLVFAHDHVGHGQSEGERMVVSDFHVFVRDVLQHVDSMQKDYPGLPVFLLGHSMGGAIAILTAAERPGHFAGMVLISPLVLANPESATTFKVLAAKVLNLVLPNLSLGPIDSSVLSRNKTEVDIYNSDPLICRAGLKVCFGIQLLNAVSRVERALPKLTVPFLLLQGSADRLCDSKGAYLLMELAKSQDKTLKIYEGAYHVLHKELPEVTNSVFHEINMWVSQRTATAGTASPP

The target in this test is human MGL from HeLa cells (Homo sapiens (Human), UniProt Q99685). The experiment in a line: MGL in vitro activity assay ([glycerol-1,3-3H]-oleoyl glycerol hydrolysis, activated carbon filtration). The class given is biochemical. The conditions noted are these: 300 nM [Glycerol-1,3-3H]-oleoyl glycerol, one hour. An outline of the steps:
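Endogenous human MGL in HeLa cells/homogenates incubated 1 h with test compounds and 300 nM [glycerol-1,3-3H]-oleoyl glycerol. Released 3H-glycerol passing an activated carbon filter counted as activity; screening at 10 μM compound, top IC50 concentration set empirically.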
In turn, `C[C@]1(O)C[C@@H](C(=O)N2CC3(CC(Cc4cccc5ccnn45)C3)C2)C1` [Example 285, ((1s,3s)-3-Hydroxy-3-methylcyclobutyl)(6-(pyrazolo[1,5-c]pyridin-7-ylmethyl)-2-azaspiro[3.3]heptan-2-yl)methanone] returned a half-inhibitory concentration (IC50) of 47 nM. This lies in the double-digit nanomolar range.
Then `Cc1cc(C(F)(F)F)ccc1CC1CCC2(C1)CN(C(=O)[C@H]1C[C@@](C)(O)C1)C2` (mixture of isomers) [Example 203, (rac)-((1s,3s)-3-Hydroxy-3-methylcyclobutyl)(6-(2-methyl-4-(trifluoromethyl)benzyl)-2-azaspiro[3.4]octan-2-yl)methanone], with 7.8 nM; and `CC(C)c1cccc([C@@H]2CCC3(C2)CN(C(=O)[C@H]2C[C@@](C)(O)C2)C3)c1` (stereo in doubt) [Example 47, ((1s,3*S)-3-Hydroxy-3-methylcyclobutyl)((*R)-6-(3-isopropylphenyl)-2-azaspiro[3.4]octan-2-yl)methanone], with 21 nM.
Then `Cn1cc(C2CCC3(CC2)CN(C(=O)[C@H]2C[C@@](C)(O)C2)C3)c2cccnc21` [Example 383, ((1s,3s)-3-Hydroxy-3-methylcyclobutyl)(7-(1-methyl-1H-pyrrolo[2,3-b]pyridin-3-yl)-2-azaspiro[3.5]nonan-2-yl)methanone], with 180 nM; and `C[C@]1(O)C[C@@H](C(=O)N2CC3(CCC(c4cccc(-n5cccn5)c4)CC3)C2)C1` [Example 347, (7-(3-(1H-Pyrazol-1-yl)phenyl)-2-azaspiro[3.5]nonan-2-yl)((1s,3s)-3-hydroxy-3-methylcyclobutyl)methanone], with 56 nM; and `C[C@]1(O)C[C@@H](C(=O)N2CC3(CCC(F)(c4ccccc4)CC3)C2)C1` [Example 340, (7-Fluoro-7-phenyl-2-azaspiro[3.5]nonan-2-yl)((1s,3s)-3-hydroxy-3-methylcyclobutyl)methanone], with 288 nM.
In the case of `C[C@]1(O)C[C@@H](C(=O)N2CC3(CCC(Cc4ccc(OC(F)F)cc4)C3)C2)C1` (mixture of isomers) [Example 183, (rac)-(6-(4-(Difluoromethoxy)benzyl)-2-azaspiro[3.4]octan-2-yl)((1s,3s)-3-hydroxy-3-methylcyclobutyl)methanone] it was 48 nM.
`COC1(c2ccccc2)CCC2(CC1)CN(C(=O)[C@H]1C[C@@](C)(O)C1)C2` [Example 342, ((1s,3s)-3-Hydroxy-3-methylcyclobutyl)(7-methoxy-7-phenyl-2-azaspiro[3.5]nonan-2-yl)methanone] showed an IC50 of 40 nM.
`Cc1cccc(OC2CC3(C2)CN(C(=O)[C@H]2C[C@@](C)(O)C2)C3)c1C(F)(F)F` [Example 250, ((1s,3s)-3-Hydroxy-3-methylcyclobutyl)(6-(3-methyl-2-(trifluoromethyl)phenoxy)-2-azaspiro[3.3]heptan-2-yl)methanone] registered an IC50 of 35 nM.
Then `Cc1cc(C(F)(F)F)cnc1OC1CC2(CCN(C(=O)[C@H]3C[C@@](C)(O)C3)CC2)C1` [Example 481, ((1s,3s)-3-Hydroxy-3-methylcyclobutyl)(2-((3-methyl-5-(trifluoromethyl)pyridin-2-yl)oxy)-7-azaspiro[3.5]nonan-7-yl)methanone], with 15 nM; and `C[C@]1(O)C[C@@H](C(=O)N2CC3(CCC(c4cn5c(n4)CCCC5)CC3)C2)C1` [Example 396, ((1s,3s)-3-Hydroxy-3-methylcyclobutyl)(7-(5,6,7,8-tetrahydroimidazo[1,2-a]pyridin-2-yl)-2-azaspiro[3.5]nonan-2-yl)methanone], with 7240 nM.
In the case of `C[C@]1(O)C[C@@H](C(=O)N2CC3(CCC(c4cc5ccccn5n4)CC3)C2)C1` [Example 388, ((1s,3s)-3-Hydroxy-3-methylcyclobutyl)(7-(pyrazolo[1,5-c]pyridin-2-yl)-2-azaspiro[3.5]nonan-2-yl)methanone] it was 198 nM.
For `Cn1ncc2cccc(CC3CC4(C3)CN(C(=O)[C@H]3C[C@@](C)(O)C3)C4)c21` [Example 299, ((1s,3s)-3-Hydroxy-3-methylcyclobutyl)(6-((1-methyl-1H-indazol-7-yl)methyl)-2-azaspiro[3.3]heptan-2-yl)methanone], half-maximal inhibition (IC50) was put at 70 nM.
Then `COc1ccc(C2CCC3(CC2)CN(C(=O)[C@H]2C[C@@](C)(O)C2)C3)cc1C(C)(C)C` [Example 118, (7-(3-(tert-Butyl)-4-methoxyphenyl)-2-azaspiro[3.5]nonan-2-yl)((1s,3s)-3-hydroxy-3-methylcyclobutyl)methanone], with 20 nM.
`C[C@]1(O)C[C@@H](C(=O)N2CC3(CCC(Oc4ccc(OC(F)(F)F)cn4)CC3)C2)C1` [Example 427, ((1s,3s)-3-Hydroxy-3-methylcyclobutyl)(7-((5-(trifluoromethoxy)pyridin-2-yl)oxy)-2-azaspiro[3.5]nonan-2-yl)methanone] showed an IC50 of 28 nM. The IC50 values of the last two compounds are within 1.5-fold of each other.
In the case of `C[C@]1(O)C[C@@H](C(=O)N2CC3(CC[C@@H](Cc4ccc(OC(F)(F)F)cc4)C3)C2)C1` (racemic) [Example 179, (rac)-((1s,3s)-3-Hydroxy-3-methylcyclobutyl)(6-(4-(trifluoromethoxy)benzyl)-2-azaspiro[3.4]octan-2-yl)methanone] it was 5.7 nM; in that of `Cc1cccc(C(F)(F)F)c1CC1CC2(C1)CN(C(=O)[C@H]1C[C@@](C)(O)C1)C2` [Example 226, ((1s,3s)-3-Hydroxy-3-methylcyclobutyl)(6-(2-methyl-6-(trifluoromethyl)benzyl)-2-azaspiro[3.3]heptan-2-yl)methanone], 2.1 nM.
Then `Cc1cc(C)cc([C@H]2CC[C@@]3(CC2)CN(C(=O)[C@H]2C[C@@](C)(O)C2)[C@H]3C)c1` (stereo in doubt) [Example 350, ((1*S,4s,7*R)-7-(3,5-Dimethylphenyl)-1-methyl-2-azaspiro[3.5]nonan-2-yl)((1s,3*R)-3-hydroxy-3-methylcyclobutyl)methanone], with 34 nM.
Then `Cc1cc(OC(C)C)nc(C2CCC3(CC2)CN(C(=O)[C@H]2C[C@@](C)(O)C2)C3)c1` [Example 374, ((1s,3s)-3-Hydroxy-3-methylcyclobutyl)(7-(6-isopropoxy-4-methylpyridin-2-yl)-2-azaspiro[3.5]nonan-2-yl)methanone], with 9.3 nM; and `COc1cccc(C2CCC3(CC2)CN(C(=O)[C@H]2C[C@@](C)(O)C2)C3)c1Cl` [Example 367, (7-(2-Chloro-3-methoxyphenyl)-2-azaspiro[3.5]nonan-2-yl)((1s,3s)-3-hydroxy-3-methylcyclobutyl)methanone], with 40 nM.
`CCOc1cccc(C2CCC3(CC2)CN(C(=O)[C@H]2C[C@@](C)(O)C2)C3)c1C` [Example 361, (7-(3-Ethoxy-2-methylphenyl)-2-azaspiro[3.5]nonan-2-yl)((1s,3s)-3-hydroxy-3-methylcyclobutyl)methanone] registered an IC50 of 1.8 nM.
In the case of `Cc1ccc(CC2CC3(CCN(C(=O)[C@H]4C[C@@](C)(O)C4)CC3)C2)cc1` [Example 173, ((1s,3s)-3-Hydroxy-3-methylcyclobutyl)(2-(4-methylbenzyl)-7-azaspiro[3.5]nonan-7-yl)methanone] it was 28 nM; in that of `COc1nc(CC2CC3(C2)CN(C(=O)[C@H]2C[C@@](C)(O)C2)C3)ccc1C(F)(F)F` [Example 281, ((1s,3s)-3-Hydroxy-3-methylcyclobutyl)(6-((6-methoxy-5-(trifluoromethyl)pyridin-2-yl)methyl)-2-azaspiro[3.3]heptan-2-yl)methanone], 1.2 nM; in that of `CC(C)(C)c1cccc([C@@H]2CCC3(C2)CN(C(=O)[C@H]2C[C@@](C)(O)C2)C3)c1` (stereo in doubt) [Example 44, ((*R)-6-(3-(tert-Butyl)phenyl)-2-azaspiro[3.4]octan-2-yl)((1s,3*S)-3-hydroxy-3-methylcyclobutyl)methanone], 9.8 nM.
In the case of `Cc1cc(C2CCC3(C2)CN(C(=O)[C@H]2C[C@@](C)(O)C2)C3)ccc1OC(F)(F)F` (mixture of isomers) [Example 66, (rac)-((1s,3s)-3-Hydroxy-3-methylcyclobutyl)(6-(3-methyl-4-(trifluoromethoxy)phenyl)-2-azaspiro[3.4]octan-2-yl)methanone] it was 0.5 nM; in that of `Cn1ncc2c(F)cc(CC3CC4(C3)CN(C(=O)[C@H]3C[C@@](C)(O)C3)C4)cc21` [Example 303, (6-((4-Fluoro-1-methyl-1H-indazol-6-yl)methyl)-2-azaspiro[3.3]heptan-2-yl)((1s,3s)-3-hydroxy-3-methylcyclobutyl)methanone], 29 nM; in that of `C[C@]1(O)C[C@@H](C(=O)N2CC3(CC(Cc4ccc(C(F)F)cc4)C3)C2)C1` [Example 232, (6-(4-(Difluoromethyl)benzyl)-2-azaspiro[3.3]heptan-2-yl)((1s,3s)-3-hydroxy-3-methylcyclobutyl)methanone], 11 nM.
Then `CC(C)c1ccc2ccn(CC3CC4(C3)CN(C(=O)[C@H]3C[C@@](C)(O)C3)C4)c2n1` [Example 290, ((1s,3s)-3-Hydroxy-3-methylcyclobutyl)(6-((6-isopropyl-1H-pyrrolo[2,3-b]pyridin-1-yl)methyl)-2-azaspiro[3.3]heptan-2-yl)methanone], with 16 nM; and `Cc1cc(C(F)(F)F)ccc1C1CCC2(C1)CN(C(=O)[C@H]1C[C@@](C)(O)C1)C2` (mixture of isomers) [Example 8, (rac)-((1s,3s)-3-Hydroxy-3-methylcyclobutyl)(6-(2-methyl-4-(trifluoromethyl)phenyl)-2-azaspiro[3.4]octan-2-yl)methanone], with 5 nM; and `Cc1c(Cl)cccc1OC1CCC2(CC1)CN(C(=O)[C@H]1C[C@@](C)(O)C1)C2` [Example 413, (7-(3-Chloro-2-methylphenoxy)-2-azaspiro[3.5]nonan-2-yl)((1s,3s)-3-hydroxy-3-methylcyclobutyl)methanone], with 22 nM.
In the case of `C[C@]1(O)C[C@@H](C(=O)N2CC3(CC[C@H](c4cccc(C5CC5)c4)C3)C2)C1` (stereo in doubt) [Example 60, ((*S)-6-(3-Cyclopropylphenyl)-2-azaspiro[3.4]octan-2-yl)((1s,3*R)-3-hydroxy-3-methylcyclobutyl)methanone], it took 25 nM to reach half-maximal inhibition (IC50).
